Earlier results, collected in US20070042008A1, “Compositions containing phosphatidylcholine and essential fatty acids” (BodyBio, Inc., priority 2005, published 2007).

Conditions: oral

## Phosphatidylcholine [PC]
  blood levels peak (time to peak): 8 to 12 h
Per 24 hrs, taken with meals
  absorbed, taken orally: up to 90%
